These results are taken from US6933272B1 (priority 1998, dated 2005).

As a reminder, the IC50 is the concentration needed to halve the response being measured.

“Also recorded” adds a separate entry of the source. Like-named read-outs stand apart in the source and are kept apart here.

In experiment [1] the target is insulin receptor β-subunit associated tyrosine kinase activity (Homo sapiens, UniProt P06213). The experiment in a line: Protein tyrosine kinase (PTK) assay, 32P incorporation into FYF peptide. The experiment is classed as biochemical. To be noted: for effect of compound alone on 32P incorporation into FYF peptide: basal, absence of insulin. As to the method:
Protein tyrosine kinase activity was determined using a modification of the method of N. Konstantopoulos (22).
The reaction was allowed to proceed for 20 minutes at 30° C. before it was terminated by the addition of 12.5 μL of 7.5 M guanidine hydrochloride. An aliquot (10 μL) of the reaction mixture was then spotted onto a Whatman 81 phosphocellulose paper (15 mm×15 mm), washed three times (2 min per wash) in about 50 mL of 30% acetic acid, 0.05% orthophosphoric acid then finally, with one wash in about 200 mL of water. The papers were then rinsed briefly (15 sec) in 95% ethanol, dried, suspended in 2.5 mL of scintillation fluid (Beckman) and counted for radioactivity in a Beckman β-counter.

For experiment [2], the system named is 3T3L1 adipocyte cells. As to the kind of experiment: Glucose transport (3H-deoxyglucose uptake) in 3T3L1 adipocyte cells. It counts as cell-based, mouse. To be noted: for effect of compound alone on glucose transport: basal, no insulin. On the procedure:
Glucose transport was determined using a modification of the method of S. J. Isakoff et at. (23). The assay involved measuring the effect of compounds on the uptake of ^3H-deoxyglucose into 3T3L1 adipocyte cells.
The cell line, 3T3-L1, derived from mouse embryo fibroblasts, was grown in 250 mL tissue culture flasks containing 15 mL medium made up of DMEM (Dulbecco's modified Eagle's medium containing glutamine, 2 mM; sodium bicarbonate, 30 mM; penicillin 71.5 mg/litre; streptomycin, 152.5 mg/litre) supplemented with 10% foetal calf serum (FCS), pH 7.4. Cells were maintained in a humidified incubator at 37° C. in a 5% CO2 environment. The medium was changed every 3 days and the cells were split when they were about 70-80% confluent.
3T3-L1 fibroblast cells from one tissue culture flask were suspended in 50 mL of DMEM media containing 10% FCS and 0.5 mL of this suspension were seeded into each well of two 48-well tissue culture plates. The differentiation of the cells was initiated when the fibroblast cells were fully confluent. Routinely, differentiation was induced on cells that had been growing in tissue culture plates for 4-5 days. […] The cells were subsequently maintained with DMEM medium containing 10% FCS.
One day prior to the glucose transport assay, cell medium was replaced with DMEM containing 10% charcoal-treated foetal calf serum (CTFCS). On the day of the assay, the medium was aspirated and each well was washed with 1 mL of 25 mM Hepes, pH 7.4 containing 0.9% NaCl (NaCl-HEPES). […] Ten microlitres of NaCl-HEPES containing 3 mM 2-deoxy-D-glucose and 0.1 μCi 2-deoxy-D-[1-^3H]glucose were then added. Following a 10 min incubation at 37° C., the medium was aspirated off and the wells rapidly washed three times with 1 mL of ice-cold 50 mM phosphate, pH 7.5 containing 150 mM NaCl (PBS) and 10 mM glucose. Two hundred microlitres of 3% Triton X-100 was then added to each well and left to incubate for a minimum of 10 minutes. One hundred microlitres of the solubilised cells was then added to 2.5 mL of liquid scintillation fluid and counted for radioactivity in a Beckman β-counter.

Experiment [3] addresses T1, insulin receptor (Homo sapiens, UniProt P06213). As to the kind of experiment: Assays of insulin action (several biological assays, classification agonist/antagonist).
Target sequence in this assay (P06213 with tags, fused parts or gaps): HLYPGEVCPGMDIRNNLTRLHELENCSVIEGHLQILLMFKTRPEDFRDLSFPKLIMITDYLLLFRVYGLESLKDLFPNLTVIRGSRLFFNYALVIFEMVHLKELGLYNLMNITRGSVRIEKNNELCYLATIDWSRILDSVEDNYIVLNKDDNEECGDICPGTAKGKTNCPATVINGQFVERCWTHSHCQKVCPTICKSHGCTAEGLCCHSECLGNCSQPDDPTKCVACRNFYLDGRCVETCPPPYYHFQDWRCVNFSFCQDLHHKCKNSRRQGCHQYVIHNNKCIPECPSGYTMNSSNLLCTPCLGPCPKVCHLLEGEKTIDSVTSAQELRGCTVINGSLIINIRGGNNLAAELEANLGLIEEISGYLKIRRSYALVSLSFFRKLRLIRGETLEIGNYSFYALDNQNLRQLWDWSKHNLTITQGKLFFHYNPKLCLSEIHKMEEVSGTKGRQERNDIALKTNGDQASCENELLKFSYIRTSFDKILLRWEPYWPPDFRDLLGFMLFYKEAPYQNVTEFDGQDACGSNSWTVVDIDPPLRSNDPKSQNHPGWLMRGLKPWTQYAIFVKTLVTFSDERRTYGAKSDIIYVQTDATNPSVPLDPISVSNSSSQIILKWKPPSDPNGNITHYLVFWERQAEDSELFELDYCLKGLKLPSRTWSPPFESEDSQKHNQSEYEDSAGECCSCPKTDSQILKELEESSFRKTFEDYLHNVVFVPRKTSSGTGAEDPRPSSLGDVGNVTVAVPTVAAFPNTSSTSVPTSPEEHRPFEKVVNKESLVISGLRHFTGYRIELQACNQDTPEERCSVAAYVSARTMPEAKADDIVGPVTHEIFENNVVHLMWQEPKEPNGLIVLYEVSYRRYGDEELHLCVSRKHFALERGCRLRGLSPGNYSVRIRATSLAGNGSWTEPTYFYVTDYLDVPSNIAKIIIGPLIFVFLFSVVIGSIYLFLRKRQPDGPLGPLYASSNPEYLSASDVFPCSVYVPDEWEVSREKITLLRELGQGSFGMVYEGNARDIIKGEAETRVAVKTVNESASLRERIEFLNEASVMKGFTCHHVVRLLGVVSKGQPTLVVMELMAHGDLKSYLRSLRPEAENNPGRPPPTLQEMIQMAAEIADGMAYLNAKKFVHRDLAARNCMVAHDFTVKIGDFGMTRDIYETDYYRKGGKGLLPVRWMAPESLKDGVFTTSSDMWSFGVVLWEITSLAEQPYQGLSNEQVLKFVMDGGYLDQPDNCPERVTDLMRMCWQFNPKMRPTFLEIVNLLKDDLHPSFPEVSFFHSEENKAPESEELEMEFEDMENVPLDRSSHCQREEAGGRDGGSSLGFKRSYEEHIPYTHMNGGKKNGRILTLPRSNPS
In experiment [4] the target is T2, insulin receptor β-subunit (Homo sapiens, UniProt P06213).
T2 construct: expressed in transfected cells
T2 sequence (P06213 28-758): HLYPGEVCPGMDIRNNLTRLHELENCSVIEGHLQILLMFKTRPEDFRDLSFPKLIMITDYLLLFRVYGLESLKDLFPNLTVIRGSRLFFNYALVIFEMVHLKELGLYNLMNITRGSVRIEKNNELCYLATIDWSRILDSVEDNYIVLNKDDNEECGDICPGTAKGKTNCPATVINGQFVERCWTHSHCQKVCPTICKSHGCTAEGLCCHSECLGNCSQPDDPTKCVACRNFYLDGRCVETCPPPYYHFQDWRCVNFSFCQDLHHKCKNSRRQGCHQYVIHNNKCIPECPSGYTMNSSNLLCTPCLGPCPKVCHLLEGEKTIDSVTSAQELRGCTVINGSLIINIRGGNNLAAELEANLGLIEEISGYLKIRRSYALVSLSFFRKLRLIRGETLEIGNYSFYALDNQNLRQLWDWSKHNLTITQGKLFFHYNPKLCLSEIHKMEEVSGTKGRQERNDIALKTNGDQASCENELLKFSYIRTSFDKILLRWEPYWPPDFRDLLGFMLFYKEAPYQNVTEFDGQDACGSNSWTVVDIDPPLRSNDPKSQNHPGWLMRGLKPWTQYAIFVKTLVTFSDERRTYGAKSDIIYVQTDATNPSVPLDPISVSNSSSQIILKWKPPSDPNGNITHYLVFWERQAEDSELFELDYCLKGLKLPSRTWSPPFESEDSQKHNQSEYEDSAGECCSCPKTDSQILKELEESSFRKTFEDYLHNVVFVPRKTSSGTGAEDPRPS
T2 sequence (P06213 763-1382): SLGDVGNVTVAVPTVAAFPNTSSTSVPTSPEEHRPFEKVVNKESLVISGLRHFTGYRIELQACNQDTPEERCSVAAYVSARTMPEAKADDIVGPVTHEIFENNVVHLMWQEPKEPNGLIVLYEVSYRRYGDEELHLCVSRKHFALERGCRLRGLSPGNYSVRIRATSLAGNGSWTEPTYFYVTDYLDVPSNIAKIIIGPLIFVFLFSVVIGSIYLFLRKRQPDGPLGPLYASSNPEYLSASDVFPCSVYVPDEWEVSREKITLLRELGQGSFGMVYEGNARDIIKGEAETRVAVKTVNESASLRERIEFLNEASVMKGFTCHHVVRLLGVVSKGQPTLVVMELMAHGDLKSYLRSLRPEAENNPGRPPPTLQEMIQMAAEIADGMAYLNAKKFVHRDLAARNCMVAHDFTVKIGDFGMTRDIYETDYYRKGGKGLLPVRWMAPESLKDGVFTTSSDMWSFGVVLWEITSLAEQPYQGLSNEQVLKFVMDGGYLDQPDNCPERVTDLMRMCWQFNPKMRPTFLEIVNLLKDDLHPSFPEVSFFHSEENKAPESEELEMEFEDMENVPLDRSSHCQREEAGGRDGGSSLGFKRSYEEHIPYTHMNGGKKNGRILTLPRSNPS
As to the kind of experiment: Insulin receptor autophosphorylation (32P into 90 kDa band). The experiment is classed as biochemical. As to the method:
After this preincubation, 2.5 μL of 1 mM ATP, 100 mM sodium orthovanadate and 5 μCi of [γ-^32P]ATP were added and incubated at room temperature for 25 minutes. The reaction was terminated by the addition of 1.5 μL of 0.5 M EDTA and 3.5 μL of 1.5 M NaCl. The solution was then either solubilised and resolved by SDS-PAGE or immunoprecipitated using anti-insulin Rβ (29B4) mouse monoclonal IgG or anti-phosphotyrosine (PY20) mouse monoclonal IgG (Santa Cruz Biotechnology Inc., USA), solubilised and then resolved by SDS-PAGE. Immunoprecipitation was performed by incubating one microgram of antibody with the reaction mixture over night at 4° C. […] The receptor-antibody-Sepharose complex was separated from the supernatant by centrifugation at 7,500 g for 5 minutes. The pellet was washed three times in TBS containing 0.1% Triton X-100 and 10 μL of 0.1 M glycine, pH 3.3 was added. The solution was then solubilised by incubation for 5 minutes at 100° C. in 10 μL of 80 mM Tris-HCl, pH 6.8 containing 0.45 M DTT, 56 mM EDTA, 30% sucrose and 6% SDS. Following centrifugation for 5 minutes at 7,500 g, the supernatant was resolved on a 7.5% SDS polyacrylamide gel. […] In some instances, gel bands corresponding to 90 kDa were excised and the associated radioactivity was measured by suspending the gel band in 2.5 mL of Scintillation fluid (Beckman) using a Beckman β-counter.

Experiment [5] addresses T1, insulin receptor. As to the kind of experiment: 125I insulin binding to human placental plasma membranes (HPPM). To be noted: human placental plasma membranes, 16 h at 4° C. Details: Human Placental Plasma Membranes—50 mM Hepes, pH 7.8 @ 4 C containing 100 U/mL Bacitracin; from tissue; host or cells: human placenta, plasma membranes. On the procedure:
(§1) Tubes were mixed and incubated for 16 h at 4° C. After the incubation, the tubes were placed on ice and 300 μL of a 1:5 suspension of 0.4% bovine-γ-globulin in 20% polyethyleneglycol 6000 (BDH chemicals) was added to each tube, mixed thoroughly and left to incubate for 30 min on ice. The tubes were then centrifuged (3,000 g) for 30 min at 4° C., the supernatant was aspirated off and the pellet counted for radioactivity. […] Inhibition constants were estimated by graphical analysis of displacement plots or calculated using the curve fitting programs EBDA and/or LIGAND.
Target sequence in this assay (P06213 28-758 limits assumed): as the sequence (P06213 28-758) above

Experiment [6] relates to IGF-1 receptor. The experiment in a line: 125I IGF-1 binding to human placental plasma membranes (HPPM). To be noted: same source of receptors (HPPM).
Experiment [7] has as its target T3, IGF-1 receptor (Homo sapiens, UniProt P08069). Described as above. Details: from tissue; host or cells: human placenta, plasma membranes. The settings on record: HPPM.
In experiment [8] the target is T1, insulin receptor. The experiment in a line: 125I insulin binding to wheat germ agglutinin purified insulin receptors (WGA.IR). Details: host or cells: several: placental membranes, CHO.T11 cells, WGA purified receptors. To be noted: LIGAND 1-site fit. On the procedure: as §1
Target sequence in this assay (P06213 28-758 limits assumed): as the sequence (P06213 28-758) above
Experiment [9] addresses T4, IGF-1 receptors (Cricetulus griseus, UniProt A0A8C2N2R2).
T4 construct: have high endogenous populations of IGF-1 receptors; endogenous in cells; host or cells: CHO wild-type cells, solubilised, WGA purified
As to the kind of experiment: 125I IGF-1 binding to WGA purified receptor preparations from CHO wild-type cells.

Experiment [10] concerns streptozotocin induced diabetic mice. As to the kind of experiment: Blood glucose levels in streptozotocin induced diabetic mice. The experiment is classed as in vivo, mouse. On the procedure:
Six week old male CD-1 mice were injected intra peritoneally with a sterile solution of streptozotocin prepared in 100 mM citrate buffer, pH 4.65 at a dose of 200 mg/kg and an injection volume of 16.7 mL/kg. Mice were housed in a 12 h light/dark cycle and fed a normal chow diet ad libitum. Drinking water was supplemented with 5% sucrose for the first two days following streptozotocin injection before being replaced with tap water thereafter. After 4 days, blood was taken from the saphenous vein of the mice using the method of Hem, A et al. (26). Random non-fasting blood glucose levels were determined on venous blood using an esprit glucometer (Bayer). Mice with blood glucose levels of greater than 15 mmol/L were characterised as diabetic.
Blood glucose levels of mice were determined, followed by an intra peritoneal dose of IM compound dissolved in diluent (1.6% glycerin, 0. 25% m-cresol, pH 6.75). Mice were then bled periodically and whole blood glucose levels were determine using a one-touch esprit glucometer (Bayer).

Experiment [11] concerns the target T1, insulin receptor. As to the kind of experiment: 125I insulin binding, insulin receptors from a number of sources. Details: host or cells: several: placental membranes, CHO.T11 cells, WGA purified receptors. On the procedure:
as §1
Target sequence in this assay (P06213 28-758 limits assumed): as the sequence (P06213 28-758) above

The target in experiment [12] is T3, IGF-1 receptor. As to the kind of experiment: Phosphorylation of immunoprecipitated IGF-1 receptors. To be noted: immunoprecipitated IGF-1 receptors free of insulin receptors. It counts as biochemical.
For experiment [13], the system named is NIH 3T3 HIR3.5 cells. To be noted: read-out: half maximal insulin concentration for stimulation of 3H-deoxyglucose; cited from earlier work.

Sequence of insulin receptor β-subunit associated tyrosine kinase activity (P06213 28-758 limits assumed): as the sequence (P06213 28-758) above
T3 sequence (P08069 31-736 limits assumed): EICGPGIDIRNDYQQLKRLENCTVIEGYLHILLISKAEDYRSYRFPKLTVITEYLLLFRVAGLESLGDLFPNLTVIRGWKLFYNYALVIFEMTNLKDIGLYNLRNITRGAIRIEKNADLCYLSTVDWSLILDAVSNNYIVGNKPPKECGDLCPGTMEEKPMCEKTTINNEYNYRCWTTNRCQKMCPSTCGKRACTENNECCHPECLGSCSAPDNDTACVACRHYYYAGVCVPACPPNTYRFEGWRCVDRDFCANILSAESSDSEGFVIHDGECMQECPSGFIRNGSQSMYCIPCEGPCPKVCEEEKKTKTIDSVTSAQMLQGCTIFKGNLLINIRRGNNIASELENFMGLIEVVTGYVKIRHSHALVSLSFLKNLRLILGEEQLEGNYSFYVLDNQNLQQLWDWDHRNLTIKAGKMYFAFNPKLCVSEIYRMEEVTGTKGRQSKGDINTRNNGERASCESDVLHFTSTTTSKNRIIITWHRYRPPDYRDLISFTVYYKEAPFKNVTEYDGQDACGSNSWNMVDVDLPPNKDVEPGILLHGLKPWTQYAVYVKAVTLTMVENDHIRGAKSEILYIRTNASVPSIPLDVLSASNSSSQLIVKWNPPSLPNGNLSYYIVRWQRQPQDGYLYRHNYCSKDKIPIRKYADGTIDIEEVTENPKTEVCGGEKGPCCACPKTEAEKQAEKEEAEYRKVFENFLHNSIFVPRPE
T4 sequence (A0A8C2N2R2 31-1371): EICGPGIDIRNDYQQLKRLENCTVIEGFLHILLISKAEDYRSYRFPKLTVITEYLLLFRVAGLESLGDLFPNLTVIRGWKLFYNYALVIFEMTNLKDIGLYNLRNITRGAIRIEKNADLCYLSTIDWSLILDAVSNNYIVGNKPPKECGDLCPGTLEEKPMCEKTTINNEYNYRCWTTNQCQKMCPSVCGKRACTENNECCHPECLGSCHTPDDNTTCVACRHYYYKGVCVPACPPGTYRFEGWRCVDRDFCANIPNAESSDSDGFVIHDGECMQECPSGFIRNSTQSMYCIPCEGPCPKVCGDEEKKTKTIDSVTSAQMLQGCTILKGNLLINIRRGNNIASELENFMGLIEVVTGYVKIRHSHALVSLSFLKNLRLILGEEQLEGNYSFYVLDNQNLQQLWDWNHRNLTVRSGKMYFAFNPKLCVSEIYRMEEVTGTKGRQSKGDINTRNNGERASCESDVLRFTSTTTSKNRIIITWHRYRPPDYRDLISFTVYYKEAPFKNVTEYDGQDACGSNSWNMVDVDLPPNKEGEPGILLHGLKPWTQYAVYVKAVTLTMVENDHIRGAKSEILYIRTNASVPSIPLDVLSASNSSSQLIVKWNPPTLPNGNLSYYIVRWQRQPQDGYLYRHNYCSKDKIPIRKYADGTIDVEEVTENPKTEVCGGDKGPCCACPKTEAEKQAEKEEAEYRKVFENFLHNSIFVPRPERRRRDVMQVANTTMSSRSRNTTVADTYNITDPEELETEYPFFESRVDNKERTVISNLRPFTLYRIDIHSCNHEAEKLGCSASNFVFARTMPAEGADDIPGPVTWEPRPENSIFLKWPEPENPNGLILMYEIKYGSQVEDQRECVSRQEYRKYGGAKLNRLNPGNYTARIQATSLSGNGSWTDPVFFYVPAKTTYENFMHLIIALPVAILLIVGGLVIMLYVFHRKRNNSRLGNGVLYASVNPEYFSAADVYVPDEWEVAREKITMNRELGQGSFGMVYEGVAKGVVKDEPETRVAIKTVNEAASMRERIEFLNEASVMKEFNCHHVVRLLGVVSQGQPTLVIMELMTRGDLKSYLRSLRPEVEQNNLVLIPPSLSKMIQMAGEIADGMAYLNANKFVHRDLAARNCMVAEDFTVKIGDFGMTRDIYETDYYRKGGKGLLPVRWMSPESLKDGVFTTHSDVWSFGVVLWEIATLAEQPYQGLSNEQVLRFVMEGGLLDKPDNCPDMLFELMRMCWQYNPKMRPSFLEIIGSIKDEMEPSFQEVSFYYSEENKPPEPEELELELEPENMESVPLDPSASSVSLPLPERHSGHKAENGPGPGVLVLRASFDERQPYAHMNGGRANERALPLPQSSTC

Consider “3,4-dihydro-7-[[6-(4-methoxyphenyl)hexenyl]oxy]-8-propyl-2H-1-benzopyran-2-carboxylic acid [IM 172]”, for which the “effect of compound alone on 32P incorporation into FYF peptide” value in [1] is recorded as “does not increase ^32P incorporation into FYF peptide”. The Ki in [1] (inhibition of insulin stimulation, read-out: estimated inhibition constant, PTK assay) was 80 µM; in [2] (3T3L1 cells, 2 nM insulin, read-out: estimated inhibition constant (Ki), glucose transport assay), 80 µM; in experiment [5] (read-out: apparent Ki (inhibition constant), competition for 125I insulin binding) it was 218 µM. For the same compound, in experiment [2], the “effect of compound alone on glucose transport” value (“effect … on glucose transport” below) is reported as “does not activate glucose transport in 3T3L1 cells”. In addition, in experiment [3], the “classification of insulin action” value is recorded as “antagonists of insulin action”. Moreover, the “effect on 32P incorporation into insulin receptor β-subunit” value in experiment [4] (basal) is on record as “does not increase ^32P incorporation into FYF peptide or the insulin receptor β-subunit”.

Regarding `CCCc1c(OCCCOc2ccc(C(C)=O)c(OC)c2CCC)ccc2c1OC(C(=O)O)CC2` (stereo not shown) [IM 129, 7-[3-(4-acetyl-3-methoxy-2-propylphenoxy)propoxy]-3,4-dihydro-8-propyl-2H-1-benzopyran-2-carboxylic acid], the “classification of insulin action” value in experiment [3] is given as “antagonists of insulin action”. Besides, in experiment [3] (PTK and glucose transport (FIGS. 8 and 9), read-out: apparent IC50 in several biological assays), the half-inhibitory concentration (IC50) lay within 30 to 200 µM. Further, in experiment [6], the “apparent Ki for 125I IGF-1 binding relative to Ki for 125I insulin binding” value is “approximately two fold higher”. The Ki in [7] (read-out: apparent Ki, displacement of 125I IGF-1 binding) is 800 to 1300 µM; in experiment [8], 189 µM; in experiment [5], 320 to 550 µM.

For `CCc1cc(-c2ccc(F)cc2)c(O)cc1OCCCOc1ccc2c(=O)c3cc(C(=O)O)ccc3oc2c1CCC(=O)O` [IM 140, 3-[4-[7-carboxy-9-oxo-3-[3-[2-ethyl-4-(4-fluorophenyl)-5-hydroxyphenoxy]propoxy]-9H-xanthene]]propanoic acid], the “effect of compound alone on 32P incorporation into FYF peptide” value in [1] was “promotes the ATP-dependent phosphorylation of endogenous FYF peptide in a dose dependent manner”. In experiment [2], the “effect … on glucose transport” value is given as “activates glucose transport in 3T3L1 cells”. Further, in experiment [2] (compound alone, relative to maximal dose of insulin (100 nM)), the “efficacy compared with insulin, glucose transport” value is given as 25-40%. Also, the EC50 in [2] (compound alone, read-out: apparent EC50, stimulation of glucose transport) is 20 to 30 µM; in experiment [2] (read-out: apparent EC50, glucose transport with sub-maximal insulin, in presence of 2 nM insulin) it was 8 µM; in [11] (read-out: apparent EC50 of increase in 125I insulin binding, low micromolar concentrations) it was 10 to 20 µM. In experiment [2] (with 2 nM insulin, compound at 15 μM), the “glucose transport, % of maximal efficacy (100 nM insulin)” value was determined as 80%. Further, the “classification of insulin action” value in experiment [3] is reported as “agonists of insulin action”. Besides, the “effect on 125I IGF-1 binding” value is “does not compete for ^125I IGF-1 binding” in [9] and “does not compete for ^125I IGF-1 binding to HPPM; also recorded: promotes ^125I IGF-1 binding to HPPM” in [7]. Also, the EC50 in vivo in experiment [10] stood at 15 µmol/kg. The “dose of peak activity, bi-phasic dose response in vivo” value in [10] fell in the range of 20 to 40 µmol/kg. Further, in [10] (100 μmol/kg, preliminary studies), the “effect on blood glucose levels” value is on record as “does not decrease blood glucose levels”. Also, in experiment [10] (dose of 35 μmol/kg, intra peritoneal), the “efficacy in lowering blood glucose relative to human insulin” value is recorded as “about 25%”. Besides, the “concentration of maximal 125I insulin binding” value in experiment [11] is 80 to 100 µM.

As to `Cc1ccc(C(=O)Nc2ccc(S(=O)(=O)O)c3cc(S(=O)(=O)O)cc(S(=O)(=O)O)c23)cc1NC(=O)c1cccc(NC(=O)Nc2cccc(C(=O)Nc3cc(C(=O)Nc4ccc(S(=O)(=O)O)c5cc(S(=O)(=O)O)cc(S(=O)(=O)O)c45)ccc3C)c2)c1` [IM 175, 8,8′-[Carbonylbis[imino-3,1-phenylenecarbonylimino(4-methyl-3,1-phenylene)carbonylimino]]bis-1,3,5-naphthalenetrisulfonic acid], the EC50 in experiment [2] (Mus musculus, 3T3-L1, compound alone, read-out: apparent EC50, stimulation of glucose transport) was approximately 250 µM. The “effect … on glucose transport” value in experiment [2] was “levels approaching maximal stimulation by insulin”. In addition, the “classification of insulin action” value in experiment [3] is listed as “agonists of insulin action”. Besides, in experiment [4] (relative to 100 nM dose of insulin, immunoprecipitated insulin receptors), the “autophosphorylation of insulin receptor β-subunits, efficacy relative to insulin” value is recorded as “about 65%”. The “effect on IGF-1 receptor phosphorylation” value in [12] is “can also stimulate the IGF-1 receptor”; in experiment [12] (listed as IM175), “lower potency on IGF-1 receptors than it does on insulin receptors”. Moreover, the Ki in experiment [7] (read-out: Ki, competition for 125I IGF-1 binding) is 9 µM; in experiment [5] it was 46 to 48 µM.

For “insulin: peptidyl ligand; the most important regulatory hormone involved in maintaining glucose homeostasis”, the EC50 in experiment [13] was 0.1 nM.
